Measured values reported in PMC9643853, “Synthesis and evaluation of 3-alkynyl-5-aryl-7-aza-indoles as broad-spectrum antiviral agents” (Frontiers in Chemistry, 2022).
Read-outs that look alike come from different tables or passages of the source.

Legend:
VEEV (TC-83) [1] = details: U-87 MG cells; recently reported; ref Pu et al., 2020; cited from earlier work
U-87 MG cells = system: U-87 MG cells; design: method as in Pu et al., 2020; details: ref Pu et al., 2020; cited from earlier work
in vitro [2] = details: human
[3] = target: adaptor-associated kinase 1 (AAK1); design: method as in Verdonck et al., 2019; details: ref Verdonck et al., 2019; read-out: AAK1 IC50 (enzymatic assay); cited from earlier work
AAK1 = AAK1 (Homo sapiens, UniProt Q2M2I8); test: LanthaScreen Eu Kinase Binding Assay for AAK1
Chain of AAK1 (Q2M2I8 whole entry): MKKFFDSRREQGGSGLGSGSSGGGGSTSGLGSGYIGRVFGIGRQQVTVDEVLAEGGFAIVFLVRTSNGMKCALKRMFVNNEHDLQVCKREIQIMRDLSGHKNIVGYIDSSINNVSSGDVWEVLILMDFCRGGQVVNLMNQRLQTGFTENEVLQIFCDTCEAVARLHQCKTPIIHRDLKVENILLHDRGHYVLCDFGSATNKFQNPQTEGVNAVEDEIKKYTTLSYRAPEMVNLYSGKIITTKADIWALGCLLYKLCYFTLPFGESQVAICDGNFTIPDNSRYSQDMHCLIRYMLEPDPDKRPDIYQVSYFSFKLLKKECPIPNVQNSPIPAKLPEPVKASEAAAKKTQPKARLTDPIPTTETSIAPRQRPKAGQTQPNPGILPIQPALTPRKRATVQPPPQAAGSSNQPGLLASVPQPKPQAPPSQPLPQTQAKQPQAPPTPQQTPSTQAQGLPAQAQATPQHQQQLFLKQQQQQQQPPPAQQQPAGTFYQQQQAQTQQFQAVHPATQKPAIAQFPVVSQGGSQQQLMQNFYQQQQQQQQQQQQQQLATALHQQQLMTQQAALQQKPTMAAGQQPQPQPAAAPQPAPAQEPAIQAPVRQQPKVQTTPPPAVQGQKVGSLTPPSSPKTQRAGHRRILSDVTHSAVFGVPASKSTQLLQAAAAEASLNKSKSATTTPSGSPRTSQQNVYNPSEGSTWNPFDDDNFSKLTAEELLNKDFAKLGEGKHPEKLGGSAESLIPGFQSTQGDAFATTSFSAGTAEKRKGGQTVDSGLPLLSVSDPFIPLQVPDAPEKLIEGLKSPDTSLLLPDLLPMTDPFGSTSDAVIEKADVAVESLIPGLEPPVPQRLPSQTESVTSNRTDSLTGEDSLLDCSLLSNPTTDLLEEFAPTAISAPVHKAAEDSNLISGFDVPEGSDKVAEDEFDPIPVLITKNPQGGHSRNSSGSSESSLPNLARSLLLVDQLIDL

in vitro [4] = details: human; remark: listed apart in the source
VEEV (TC-83) [5] = test: microbe, parasite or virus in culture; assay type: cell-based; details: Venezuelan equine encephalitis virus, U-87 MG, 18 h, read-out: VEEV EC50
RSV-A [6] = test: RSV-A cytopathic effect (CPE) reduction assay in HEp-2 cells, MTS read-out; assay type: cell-based, human respiratory syncytial virus, RSV-A strain Long
RSV-A [7] = test: Anti-RSV-A activity in A549 cells, viral RNA in supernatant by RT-qPCR; assay type: cell-based, RSV-A strain Long; details: human respiratory syncytial virus, 120 h; A549 cells, RT-qPCR of culture supernatant, MOI 0.1, 5 days; read-out: RSV-A EC50 (A549, viral RNA levels)
SARS-CoV-2 = test: microbe, parasite or virus in culture; assay type: cell-based, SARS-CoV-2 BetaCov/Belgium/GHB-03021/2020; details: Severe acute respiratory syndrome coronavirus 2, 96 h, read-out: SARS-CoV-2 EC50
in vitro [8] = details: African green monkey
[9] = human respiratory syncytial virus, HEp-2, 96 h; read-out: RSV-A EC50

| Structure (SMILES) | EC50 (VEEV (TC-83) [1]) [µM] | CC50 (U-87 MG cells) [µM] | CC50 (in vitro [2]) [µM] | IC50 [3] [µM] | IC50 (AAK1) [µM] | CC50 at 4 days (in vitro [4]) [µM] | EC50 (VEEV (TC-83) [5]) [µM] | selectivity index (SI) (RSV-A [6]; CC50 HEp-2 / EC50 RSV-A) | EC50 (RSV-A [6]; human respiratory syncytial virus, HEp-2, 96 h, read-out: RSV-A EC50) [µM] | EC50 (RSV-A [7]) [µM] | EC50 (SARS-CoV-2) [µM] | AAK1 affinity (in words) (AAK1) | CC50 (in vitro [8]) [µM] | EC50 (RSV-A [6]; [9]) [µM] |
| --- | --- | --- | --- | --- | --- | --- | --- | --- | --- | --- | --- | --- | --- | --- |
| COc1cc(O)c2c(c1)/C=C/C[C@H](O)[C@H](O)C(=O)/C=C\C[C@H](C)OC2=O [5Z-7-Oxozeanol] | 2.66 ± 0.13 | > 10 | – | – | – | – | – | – | – | – | – | – | – | – |
| COc1ccc(-c2cnc3[nH]cc(C#Cc4cccnc4)c3c2)cc1OC [Compound 1] | – | – | > 10 | 0.004 | 0.0042 | 2 | 1.22 ± 0.22 | 10.5 | 0.19 ± 0.13 | – | – | – | – | – |
| CCNC(=O)c1ccc(-c2cnc3[nH]cc(C#Cc4cccnc4)c3c2)cc1 [Compound 8b] | – | – | > 10 | – | 0.004 | 50 | 6.01 ± 1.81 | – | – | 0.01 | 0.58 ± 0.05 | low nanomolar AAK1 affinity | > 100 | 0.3 ± 0.28 |
| CNC(=O)c1cccc(-c2cnc3[nH]cc(C#Cc4cccnc4)c3c2)c1 [Compound 8e] | – | – | > 10 | – | 0.0035 | > 50 | > 10 | – | – | 0.2 | – | low nanomolar AAK1 affinity | – | 0.29 ± 0.32 |
| O=C(NC1CC1)c1cccc(-c2cnc3[nH]cc(C#Cc4cccnc4)c3c2)c1 [Compound 8f] | – | – | > 10 | – | 0.0054 | > 50 | 2.75 ± 1.22 | – | – | 0.59 | – | low nanomolar AAK1 affinity | – | 0.16 ± 0.025 |
